US11337969B2, “Methods for treating cancer” (X4 Pharmaceuticals, Inc., priority 2016, dated 2022)
Each block holds one compound with its values, some of them ahead of it.

Legend:
[1] = tested on: melanoma, renal cell carcinoma, and ovarian cancer; details: including decreased metastasis and increased overall survival; cited from earlier work
[2] = subcutaneous injection; cited from earlier work
[3] = oral administration, healthy volunteers and HIV patients; cited from earlier work
in vivo = experiment: in vivo
Protocol: In certain embodiments, the dosage composition may be provided twice a day in divided dosage, approximately 12 hours apart. In other embodiments, the dosage composition may be provided once daily. […] Dosage for oral administration may be from about 100 mg to about 1200 mg once or twice per day.

[4] = Solubility of X4P-001 as a function of pH; format: physicochemical
[5] = tested on: advanced clear-cell renal-cell carcinoma; details: cited from earlier work; for objective response rate: patients after one or two antiangiogenic regimens, nivolumab 3 mg/kg iv every two weeks or everolimus 10 mg orally daily, P<0.001
[6] = nivolumab compared to everolimus

Compound: c1cc(CN2CCCNCCNCCCNCC2)ccc1CN1CCCNCCNCCCNCC1 [Plerixafor, reference compound]
anti-tumor activity [1]: significant anti-tumor activity
half life [2]: very short

terminal half-life (in vivo): approximately 14.5 hrs
half-life (in vivo; terminal half-life): 12 to 24 h
solubility ([4]; aqueous buffer, pH range 3.0 to 8.0 (freely soluble)): > 100 mg/mL
Solubility in water ([4]; water): only slightly soluble
Compound: NCCCCN(Cc1nc2ccccc2[nH]1)[C@H]1CCCc2cccnc21 [X4P-001]
pharmacodynamic activity: circulating white blood cells (WBCs) [3]: dose- and concentration-related changes
volume of distribution (VL) [3]: high
anti-tumor activity [1]: significant anti-tumor activity

Compound: CO[C@H]1C[C@@H]2CC[C@@H](C)[C@@](O)(O2)C(=O)C(=O)N2CCCC[C@H]2C(=O)O[C@H]([C@H](C)C[C@@H]2CC[C@@H](OCCO)[C@H](OC)C2)CC(=O)[C@H](C)/C=C(\C)[C@@H](O)[C@@H](OC)C(=O)[C@H](C)C[C@H](C)/C=C/C=C/C=C/1C [everolimus]
objective response rate [5]: 5%

Compound: nivolumab: human IgG4 anti-PD-1 monoclonal antibody
incidence of Grade 3 or 4 treatment-related adverse events [5, 6]: lower incidence
median overall survival [5, 6]: longer
objective response rate [5]: 25%
